According to paper PMC6920136 (Redox Biology, 2019):

Experiments:
Duox2 = Duox2 (Homo sapiens, UniProt Q9NRD8); test: H2O2 synthesis assay in homogenates of HEK293T cells expressing Duox2/DuoxA2; assay type: biochemical
Duox1 = Duox1 (Homo sapiens, UniProt Q9NRD9); test: H2O2 synthesis assay in homogenates of HEK293T cells expressing Duox1/DuoxA1α; assay type: biochemical
Chain of Duox1 (Q9NRD9 22-1551): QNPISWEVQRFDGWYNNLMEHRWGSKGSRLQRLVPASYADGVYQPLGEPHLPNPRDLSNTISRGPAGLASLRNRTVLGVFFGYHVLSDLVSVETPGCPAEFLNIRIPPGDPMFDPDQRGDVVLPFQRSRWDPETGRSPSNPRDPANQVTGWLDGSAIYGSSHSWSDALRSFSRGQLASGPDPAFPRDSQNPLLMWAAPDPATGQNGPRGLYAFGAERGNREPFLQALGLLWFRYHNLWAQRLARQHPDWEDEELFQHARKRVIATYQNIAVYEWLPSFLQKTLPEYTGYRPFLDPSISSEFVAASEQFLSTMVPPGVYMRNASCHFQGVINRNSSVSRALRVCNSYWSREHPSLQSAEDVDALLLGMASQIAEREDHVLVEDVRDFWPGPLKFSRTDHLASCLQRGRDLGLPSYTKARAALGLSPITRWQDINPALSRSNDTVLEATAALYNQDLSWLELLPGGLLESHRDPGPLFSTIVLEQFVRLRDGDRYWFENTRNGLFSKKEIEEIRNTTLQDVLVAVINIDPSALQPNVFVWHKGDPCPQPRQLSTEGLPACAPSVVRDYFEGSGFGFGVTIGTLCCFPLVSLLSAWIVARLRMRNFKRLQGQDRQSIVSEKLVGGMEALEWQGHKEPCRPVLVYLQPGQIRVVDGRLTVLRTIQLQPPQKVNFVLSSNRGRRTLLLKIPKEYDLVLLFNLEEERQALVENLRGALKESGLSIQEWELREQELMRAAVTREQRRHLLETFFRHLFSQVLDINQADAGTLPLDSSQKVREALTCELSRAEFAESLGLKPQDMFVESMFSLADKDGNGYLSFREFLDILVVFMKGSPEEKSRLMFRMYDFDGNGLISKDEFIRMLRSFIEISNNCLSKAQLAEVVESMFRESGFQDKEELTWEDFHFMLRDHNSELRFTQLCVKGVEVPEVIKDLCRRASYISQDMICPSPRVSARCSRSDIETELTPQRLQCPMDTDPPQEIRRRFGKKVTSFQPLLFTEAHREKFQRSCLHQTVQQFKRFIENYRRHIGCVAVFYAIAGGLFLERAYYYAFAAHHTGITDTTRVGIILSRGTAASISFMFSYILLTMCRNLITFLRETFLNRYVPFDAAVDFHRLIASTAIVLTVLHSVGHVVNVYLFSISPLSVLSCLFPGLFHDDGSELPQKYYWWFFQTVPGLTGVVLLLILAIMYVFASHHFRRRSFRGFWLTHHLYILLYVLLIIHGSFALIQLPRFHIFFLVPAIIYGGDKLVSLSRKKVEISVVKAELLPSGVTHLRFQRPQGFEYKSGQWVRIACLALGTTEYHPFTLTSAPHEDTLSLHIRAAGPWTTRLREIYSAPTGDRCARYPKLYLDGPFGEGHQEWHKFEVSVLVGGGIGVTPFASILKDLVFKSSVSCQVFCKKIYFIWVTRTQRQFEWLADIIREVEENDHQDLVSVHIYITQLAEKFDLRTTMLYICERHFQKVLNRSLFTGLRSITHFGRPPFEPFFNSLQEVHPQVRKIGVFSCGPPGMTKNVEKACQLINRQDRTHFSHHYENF
Chain of Duox1 (Q1HG43 whole entry partner): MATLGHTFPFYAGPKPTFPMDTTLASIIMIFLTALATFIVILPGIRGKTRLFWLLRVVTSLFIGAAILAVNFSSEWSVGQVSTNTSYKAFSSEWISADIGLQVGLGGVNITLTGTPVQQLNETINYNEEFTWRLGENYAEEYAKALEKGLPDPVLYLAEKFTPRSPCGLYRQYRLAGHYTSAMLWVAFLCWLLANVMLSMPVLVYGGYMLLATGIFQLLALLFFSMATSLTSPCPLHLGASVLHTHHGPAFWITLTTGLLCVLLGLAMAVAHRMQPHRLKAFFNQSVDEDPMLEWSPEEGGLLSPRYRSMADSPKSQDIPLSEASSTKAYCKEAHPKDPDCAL

Chain of Duox2 (Q9NRD8 26-1548): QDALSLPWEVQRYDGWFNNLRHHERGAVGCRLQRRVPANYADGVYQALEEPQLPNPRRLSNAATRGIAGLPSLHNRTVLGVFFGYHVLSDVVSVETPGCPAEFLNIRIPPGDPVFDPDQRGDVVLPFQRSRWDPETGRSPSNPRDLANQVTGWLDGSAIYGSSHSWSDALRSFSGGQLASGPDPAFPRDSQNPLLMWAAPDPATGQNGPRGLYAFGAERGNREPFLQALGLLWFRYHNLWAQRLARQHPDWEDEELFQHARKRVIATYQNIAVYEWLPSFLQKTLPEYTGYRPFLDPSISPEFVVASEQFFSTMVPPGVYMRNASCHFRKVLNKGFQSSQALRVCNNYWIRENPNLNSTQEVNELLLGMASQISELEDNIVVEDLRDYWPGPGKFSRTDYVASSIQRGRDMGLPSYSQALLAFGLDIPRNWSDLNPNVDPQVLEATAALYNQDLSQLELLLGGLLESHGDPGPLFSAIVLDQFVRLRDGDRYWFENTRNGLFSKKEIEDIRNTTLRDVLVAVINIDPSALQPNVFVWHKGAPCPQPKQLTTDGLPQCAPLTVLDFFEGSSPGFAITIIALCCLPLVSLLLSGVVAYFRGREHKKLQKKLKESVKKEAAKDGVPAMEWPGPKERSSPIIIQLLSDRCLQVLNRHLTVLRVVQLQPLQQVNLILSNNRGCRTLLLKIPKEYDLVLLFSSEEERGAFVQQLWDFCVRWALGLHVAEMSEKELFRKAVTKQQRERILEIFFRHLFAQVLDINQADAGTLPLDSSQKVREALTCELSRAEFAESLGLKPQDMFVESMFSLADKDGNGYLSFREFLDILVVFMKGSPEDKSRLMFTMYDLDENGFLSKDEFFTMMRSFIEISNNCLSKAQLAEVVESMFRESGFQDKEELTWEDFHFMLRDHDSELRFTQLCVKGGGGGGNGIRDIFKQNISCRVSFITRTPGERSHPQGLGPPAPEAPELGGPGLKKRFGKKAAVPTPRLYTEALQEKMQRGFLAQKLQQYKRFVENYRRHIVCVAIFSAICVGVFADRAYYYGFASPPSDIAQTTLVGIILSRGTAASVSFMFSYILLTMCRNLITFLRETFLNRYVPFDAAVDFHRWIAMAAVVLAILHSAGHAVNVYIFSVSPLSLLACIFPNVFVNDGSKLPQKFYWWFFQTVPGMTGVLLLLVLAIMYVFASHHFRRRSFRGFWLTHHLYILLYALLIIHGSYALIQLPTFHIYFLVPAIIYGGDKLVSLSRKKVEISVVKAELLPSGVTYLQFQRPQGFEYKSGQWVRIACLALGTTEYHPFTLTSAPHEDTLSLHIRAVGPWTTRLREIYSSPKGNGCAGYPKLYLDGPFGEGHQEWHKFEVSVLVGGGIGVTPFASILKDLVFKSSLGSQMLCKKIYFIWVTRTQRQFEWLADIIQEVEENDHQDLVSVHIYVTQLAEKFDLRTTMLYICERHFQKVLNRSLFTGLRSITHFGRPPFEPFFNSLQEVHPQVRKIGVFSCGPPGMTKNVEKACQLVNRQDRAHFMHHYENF
Chain of Duox2 (Q1HG44 whole entry partner): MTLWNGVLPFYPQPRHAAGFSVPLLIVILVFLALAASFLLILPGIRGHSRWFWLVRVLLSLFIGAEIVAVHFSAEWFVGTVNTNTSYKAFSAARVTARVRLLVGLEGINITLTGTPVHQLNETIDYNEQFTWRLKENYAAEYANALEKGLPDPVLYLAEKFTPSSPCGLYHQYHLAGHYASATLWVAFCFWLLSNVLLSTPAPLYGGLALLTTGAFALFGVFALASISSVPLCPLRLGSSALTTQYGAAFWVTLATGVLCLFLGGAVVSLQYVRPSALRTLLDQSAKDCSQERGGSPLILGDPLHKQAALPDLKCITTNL

IC50 (Duox2): 110 µM
IC50 (Duox1): 140 µM
Structure (SMILES): N=C(N)Nc1nc2ccc(Cl)cc2[nH]1 [ClGBI, 5-chloro-2-guanidinobenzimidazole]
